Columns and labels:
H-9 cells = experiment: Toxicity study (median lethal dose) in H-9 cells; assay type: cell-based
Method: (§1) The median lethal doses (LD₅₀) of single treatment of Procysteine® were 5 mM with PBMC, 21 mM with H-9 cells, and 31 mM with MT-2 cells. […] Therefore, both 25 mM or 50 mM of Procysteine® could have caused significant cell mortality in the test cell systems. […] To avoid the misinterpretation of drug antiviral efficacy due to toxicity, an alternative design using lower concentrations of Procysteine® in the combination treatment was performed. […] The HIV p24 assays were performed for analysis.

HIV-1 (strain IIIB) [1] = experiment: MTT assay of protection against acute HIV infection in MT-2 cells; assay type: cell-based; details: 100 IU/well HIV; for OD readings at 540 nm (MTT assay): MT-2, Day 6 cultures
From the text: (§2) Three cell culture systems were used in this study: H-9 cells; MT-2 cells; and normal human peripheral blood mononuclear cells (PBMC). H-9 cells were obtained from Advanced Biotechnology Inc. (ABI). MT-2 cells were obtained from Dr. J. Armstrong of the University of Pittsburgh. MT-2 cells are HTLV-I transformed human T lymphocytes and continuously produce HTLV-I virions. PBMC were obtained from healthy donors, purified by Ficol-Hypaque, and stimulated with PHA mitogen before being used in the efficacy studies. The initial stock of HIV-1 (strain IIIB) used in this study was obtained from ABI and the working stocks were produced.
(§3) Cells were collected, put into tissue culture plates and incubated with different concentrations of drugs in RPMI 1640 tissue culture medium for 20 minutes prior to HIV challenge. Infection was carried out by inoculating 20-100 HIV infectious units (IU)/well inoculum without removing the drugs. The untreated cells exposed to HIV challenge served as positive controls. The normal untreated uninfected cells served as negative controls.
(§4) Both the MTT assay and HIV p24 ELISA were used for evaluation of drug efficacies with MT-2 cells. The MTT assay is based upon the metabolic reduction of the MTT tetrazolium bromide dye in live cells. The OD readings (at 540 nm) obtained from the MTT assay are inversely correlated to the levels of cell mortality due to HIV infection or the cytotoxic effect of drugs. […] The HIV p24 antigen assay measures the level of HIV antigen present in the sample (i.e., culture supernatant).
(§5) When evaluating the efficacies of drugs in H-9 cells and PBMC systems, only HIV p24 assays were used. To calculate the ED₅₀ values, a second order linear regression was applied on the logarithm of the tested doses of different drugs against the OD readings obtained from either MTT assays or HIV p24 assays.

PBMC = experiment: Toxicity study (median lethal dose) in PBMC; assay type: cell-based, human
Method: as §1

HIV-1 (strain IIIB) [2] = experiment: HIV p24 antigen assay in PBMC (single and combination treatment); assay type: cell-based; details: 50 IU/well HIV
From the text: as §2, §3, §5
(§6) Cells were collected, put into tissue culture plates and incubated with different combinations of drugs for 20 minutes prior to HIV infection in the combined treatment studies. Infection was carried out by inoculating 20-100 HIV IU/well inoculum without removing the drugs. The inocula were the same as the ones used in the single drug treatment to obtain the ED₅₀ values. Both MTT assays and HIV p24 antigen assays were used in evaluation of drug effects in MT-2 cells but only HIV p24 antigen assays were used for H-9 cells or PBMC.
(§7) Therefore, if the CI is less than 1, it indicates synergism among the tested drugs. Similarly, if the CI is equal to 1, the effects are additive, while a CI value greater than 1 is indicative of an antagonistic effect.

HIV-1 (strain IIIB) [3] = experiment: HIV p24 antigen assay in H-9 cells (single and combination treatment); assay type: cell-based; details: 80 IU/well HIV; for OD readings at 450 nm (HIV p24 antigen): H-9
From the text: as §2, §3, §5, §6, §7

MT-2 cells = experiment: Toxicity study (median lethal dose) in MT-2 cells; assay type: cell-based, human
Method: as §1

HIV-1 (strain IIIB) [4] = experiment: HIV p24 antigen assay in MT-2 cells (single and combination treatment); assay type: cell-based; details: 20 IU/well HIV; for OD readings at 450 nm (HIV p24 antigen): MT-2
From the text: as §2, §3, §4, §5, §6, §7

H-9, MT-2, and PBMC = experiment: Toxicity study (median lethal dose), all three cell systems together; assay type: cell-based; details: range over the cell systems studied in this protocol
Method: as §1

O=C1N[C@H](C(=O)O)CS1 [Procysteine®]
median lethal doses (LD50) (H-9 cells; single treatment): 21 mM
LD50 value (H-9 cells; with 1 µM of AZT): 30 mM
OD readings at 540 nm (MTT assay) (HIV-1 (strain IIIB) [1]; 0.023 mM): 0.392
OD readings at 540 nm (MTT assay) (HIV-1 (strain IIIB) [1]; 0.23 mM): 0.265
OD readings at 540 nm (MTT assay) (HIV-1 (strain IIIB) [1]; 0.93 mM): 0.283
OD readings at 540 nm (MTT assay) (HIV-1 (strain IIIB) [1]; 3.75 mM): 0.270
OD readings at 540 nm (MTT assay) (HIV-1 (strain IIIB) [1]; 15 mM): 0.308
OD readings at 540 nm (MTT assay) (HIV-1 (strain IIIB) [1]; 60 mM): 0.350
Calculated single treatment ED50 (HIV-1 (strain IIIB) [1]; MT-2 cells, MTT assay): 2.3e+13 mM
median lethal doses (LD50) (PBMC; single treatment): 5 mM
LD50 value (PBMC; with 1 µM of AZT): 8.3 mM
OD readings at 450 nm (HIV p24 antigen) (HIV-1 (strain IIIB) [2]; 0.023 mM): 3.703
OD readings at 450 nm (HIV p24 antigen) (HIV-1 (strain IIIB) [2]; 0.23 mM): 3.057
OD readings at 450 nm (HIV p24 antigen) (HIV-1 (strain IIIB) [2]; 0.93 mM): 2.951
OD readings at 450 nm (HIV p24 antigen) (HIV-1 (strain IIIB) [2]; 3.75 mM): 3.640
OD readings at 450 nm (HIV p24 antigen) (HIV-1 (strain IIIB) [2]; 15 mM): 3.284
OD readings at 450 nm (HIV p24 antigen) (HIV-1 (strain IIIB) [2]; 60 mM): 1.141
Calculated single treatment ED50 (HIV-1 (strain IIIB) [2]; p24 assay): 378 mM
OD readings at 450 nm (HIV p24 antigen) (HIV-1 (strain IIIB) [3]; 0.023 mM): 4.133
OD readings at 450 nm (HIV p24 antigen) (HIV-1 (strain IIIB) [3]; 0.23 mM): 4.133
OD readings at 450 nm (HIV p24 antigen) (HIV-1 (strain IIIB) [3]; 0.93 mM): 4.133
OD readings at 450 nm (HIV p24 antigen) (HIV-1 (strain IIIB) [3]; 3.75 mM): 4.133
OD readings at 450 nm (HIV p24 antigen) (HIV-1 (strain IIIB) [3]; 15 mM): 4.099
OD readings at 450 nm (HIV p24 antigen) (HIV-1 (strain IIIB) [3]; 60 mM): 0.767
Calculated single treatment ED50 (HIV-1 (strain IIIB) [3]; H-9 cells, p24 assay): 653 mM
LD50 value (MT-2 cells; as quoted in the discussion of ddI combination treatment): 31 to 32 mM
median lethal doses (LD50) (MT-2 cells; single treatment): 31 mM
LD50 value (MT-2 cells; with 1 µM of AZT): 36 mM
OD readings at 450 nm (HIV p24 antigen) (HIV-1 (strain IIIB) [4]; 0.023 mM): 3.269
OD readings at 450 nm (HIV p24 antigen) (HIV-1 (strain IIIB) [4]; 0.23 mM): 3.712
OD readings at 450 nm (HIV p24 antigen) (HIV-1 (strain IIIB) [4]; 0.93 mM): 3.762
OD readings at 450 nm (HIV p24 antigen) (HIV-1 (strain IIIB) [4]; 3.75 mM): 3.649
OD readings at 450 nm (HIV p24 antigen) (HIV-1 (strain IIIB) [4]; 15 mM): 2.825
OD readings at 450 nm (HIV p24 antigen) (HIV-1 (strain IIIB) [4]; 60 mM): 1.675
Calculated single treatment ED50 (HIV-1 (strain IIIB) [4]; MT-2 cells, p24 assay): 1613 mM
median lethal doses (LD50) (H-9, MT-2, and PBMC): 5 to 30 mM

— EP0624368A2, “Use of a composition for stimulating the synthesis of glutathione in the manufacture of a medicament for the treatment of acquired immune deficiency syndrome” (priority 1993, dated 1994)
